Results on one molecule are retold here after ChEMBL document CHEMBL5724914, “Linking interpersonal differences in gut microbiota composition and drug biotransformation activity” (2024).

The conditions of data set [1]: human gut metagenome, 24 h, 2 µM.
A short description of data set [2]: The drug is tested on Z-019 corresponding to rat gut metagenome with ENA study accession number: PRJEB37062 and ENA sample accession number: ERS12561818 for biotransformation under anaerobic condition. The drug concentrations were measured over 9 timepoints collected between 0 and 24 hours of incubation by liquid-chromatography-coupled mass spectrometry (LC–MS). Conditions: 2 µM.

Data set [3] in a line: The drug is tested on WLS-090 corresponding to human gut metagenome with ENA study accession number: PRJEB37062 and ENA sample accession number: ERS12561753 for biotransformation under anaerobic condition. The drug concentrations were measured over 9 timepoints collected between 0 and 24 hours of incubation by liquid-chromatography-coupled mass spectrometry (LC–MS). Conditions: 2 µM.

For data set [4] the following is noted: human gut metagenome, 24 h, 2 µM. The source holds these as a separate data set.
Data set [5] can be described thus: The drug is tested on WLS-010 corresponding to human gut metagenome with ENA study accession number: PRJEB37062 and ENA sample accession number: ERS12561743 for biotransformation under anaerobic condition. The drug concentrations were measured over 9 timepoints collected between 0 and 24 hours of incubation by liquid-chromatography-coupled mass spectrometry (LC–MS). Conditions: 2 µM.

Data set [6] can be described thus: The drug is tested on Z-007 corresponding to rat gut metagenome with ENA study accession number: PRJEB37062 and ENA sample accession number: ERS12561807 for biotransformation under anaerobic condition. The drug concentrations were measured over 9 timepoints collected between 0 and 24 hours of incubation by liquid-chromatography-coupled mass spectrometry (LC–MS). Conditions: 2 µM.

The conditions of data set [7]: human gut metagenome, 24 h, 2 µM. This is another data set of the same source.
Data set [8] can be described thus: The drug is tested on Z-017 corresponding to mouse gut metagenome with ENA study accession number: PRJEB37062 and ENA sample accession number: ERS12561816 for biotransformation under anaerobic condition. The drug concentrations were measured over 9 timepoints collected between 0 and 24 hours of incubation by liquid-chromatography-coupled mass spectrometry (LC–MS). Conditions: 2 µM.

For data set [9] the following is noted: human gut metagenome, 24 h, 2 µM. This is another data set of the same source.
For data set [10] the following is noted: human gut metagenome, 24 h, 2 µM. This is another data set of the same source.
Data set [11] is described as follows: The drug is tested on Z-009 corresponding to pig gut metagenome with ENA study accession number: PRJEB37062 and ENA sample accession number: ERS12561809 for biotransformation under anaerobic condition. The drug concentrations were measured over 9 timepoints collected between 0 and 24 hours of incubation by liquid-chromatography-coupled mass spectrometry (LC–MS). Conditions: 2 µM.

Data set [12] can be described thus: The drug is tested on WLS-350 corresponding to human gut metagenome with ENA study accession number: PRJEB37062 and ENA sample accession number: ERS12561789 for biotransformation under anaerobic condition. The drug concentrations were measured over 9 timepoints collected between 0 and 24 hours of incubation by liquid-chromatography-coupled mass spectrometry (LC–MS). Conditions: 2 µM.

Data set [13] in a line: The drug is tested on Z-016 corresponding to mouse gut metagenome with ENA study accession number: PRJEB37062 and ENA sample accession number: ERS12561815 for biotransformation under anaerobic condition. The drug concentrations were measured over 9 timepoints collected between 0 and 24 hours of incubation by liquid-chromatography-coupled mass spectrometry (LC–MS). Conditions: 2 µM.

Data set [14] in a line: The drug is tested on WLS-098 corresponding to human gut metagenome with ENA study accession number: PRJEB37062 and ENA sample accession number: ERS12561754 for biotransformation under anaerobic condition. The drug concentrations were measured over 9 timepoints collected between 0 and 24 hours of incubation by liquid-chromatography-coupled mass spectrometry (LC–MS). Conditions: 2 µM.

The nature of data set [15]: The drug is tested on Z-008 corresponding to metagenome with ENA study accession number: PRJEB37062 and ENA sample accession number: ERS12561808 for biotransformation under anaerobic condition. The drug concentrations were measured over 9 timepoints collected between 0 and 24 hours of incubation by liquid-chromatography-coupled mass spectrometry (LC–MS). Conditions: 2 µM.

Data set [16] in a line: The drug is tested on Z-005 corresponding to metagenome with ENA study accession number: PRJEB37062 and ENA sample accession number: ERS12561805 for biotransformation under anaerobic condition. The drug concentrations were measured over 9 timepoints collected between 0 and 24 hours of incubation by liquid-chromatography-coupled mass spectrometry (LC–MS). Conditions: 2 µM.

The conditions of data set [17]: human gut metagenome, 24 h, 2 µM. This is another data set of the same source.
Data set [18] is described as follows: The drug is tested on WLS-052 corresponding to human gut metagenome with ENA study accession number: PRJEB37062 and ENA sample accession number: ERS12561747 for biotransformation under anaerobic condition. The drug concentrations were measured over 9 timepoints collected between 0 and 24 hours of incubation by liquid-chromatography-coupled mass spectrometry (LC–MS). Conditions: 2 µM.

For data set [19] the following is noted: human gut metagenome, 24 h, 2 µM. This is another data set of the same source.
For data set [20] the following is noted: human gut metagenome, 24 h, 2 µM. This is another data set of the same source.
Note: call rule not given here.

Take `C[C@@H](c1ncncc1F)[C@](O)(Cn1cncn1)c1ccc(F)cc1F` [VORICONAZOLE]: the “Bacterial Biotransformation” value was “Compound metabolized” in [1]; “Compound NOT metabolized” in data set [2]; “Compound metabolized” in [3]; “Compound metabolized” in [4]; “Compound metabolized” in data set [5]; “Compound NOT metabolized” in data set [6]. The “Bacterial Biotransformation” value in [7] is given as “Compound metabolized”; in data set [8] it was “Compound NOT metabolized”; in data set [9], “Compound metabolized”; in data set [10], “Compound metabolized”; in [11] it was “Compound metabolized”; in [12], “Compound metabolized”. For the same molecule, the “Bacterial Biotransformation” value in data set [13] is recorded as “Compound metabolized”; in [14] it was “Compound metabolized”; in data set [15], “Compound NOT metabolized”; in data set [16], “Compound metabolized”; in data set [17], “Compound metabolized”; in data set [18], “Compound metabolized”. Also, the “Bacterial Biotransformation” value in data set [19] and in data set [20] was “Compound metabolized” each time.
